“Also recorded” adds a separate entry of the source. Read-outs that look alike come from different tables or passages of the source.
Tests used:
Myeloperoxidase (MPO) [1] = biological target: T1, Myeloperoxidase (MPO) (Homo sapiens, UniProt P05164); experiment: MPO fluorescence stopped flow assay; details: for k−3: same fixed constants; for Akaike weight / ΔAICc: Dynafit 3 model discrimination; for best fitting slow binding inhibition model: Akaike information criterion based discrimination
Myeloperoxidase (MPO) [2] = biological target: T1, Myeloperoxidase (MPO); experiment: SDS-PAGE analysis of inhibitor-mediated cleavage of MPO; type: biochemical; details: MPO 1.2 μM, ADHP 40 μM, inhibitor 0-25 mM, H2O2 20 μM, 10 min, room temperature
Myeloperoxidase (MPO) [3] = biological target: T1, Myeloperoxidase (MPO); details: for apparent kcat of MPO for ADHP in presence of inhibitor: Lineweaver-Burk
Myeloperoxidase (MPO) [4] = biological target: T1, Myeloperoxidase (MPO); details: MPO 23 nM pre-incubated with inhibitor 1 hr without H2O2, dialysis, then H2O2
[5] = 1 or 2-step slow tight-binding fit, DynaFit 3, fixed k+1 = 10 μM^−1s^−1, k−1 = 80 s^−1, k+2 = 224 s^−1, pH 5.6, 25°C
[6] = 1 or 2-step slow tight-binding fit, DynaFit 3
[7] = 2-step slow tight-binding fit, DynaFit 3

T1 sequence (P05164 165-273 limits assumed): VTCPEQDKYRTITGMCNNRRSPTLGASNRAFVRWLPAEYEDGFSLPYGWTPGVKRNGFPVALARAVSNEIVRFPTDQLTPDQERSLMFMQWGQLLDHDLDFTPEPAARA
T1 sequence (P05164 279-745 limits assumed): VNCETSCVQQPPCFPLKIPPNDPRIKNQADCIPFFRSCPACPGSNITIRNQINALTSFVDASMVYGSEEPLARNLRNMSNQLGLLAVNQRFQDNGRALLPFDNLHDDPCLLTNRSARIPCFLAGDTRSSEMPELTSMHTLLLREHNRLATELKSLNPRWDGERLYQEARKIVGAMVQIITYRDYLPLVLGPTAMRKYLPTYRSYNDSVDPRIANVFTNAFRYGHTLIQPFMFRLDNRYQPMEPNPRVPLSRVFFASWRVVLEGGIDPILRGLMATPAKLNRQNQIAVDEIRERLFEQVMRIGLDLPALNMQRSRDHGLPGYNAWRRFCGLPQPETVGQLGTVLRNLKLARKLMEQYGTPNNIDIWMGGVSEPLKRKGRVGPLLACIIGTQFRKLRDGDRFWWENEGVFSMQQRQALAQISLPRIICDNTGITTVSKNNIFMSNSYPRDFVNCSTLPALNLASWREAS

k+3 (Myeloperoxidase (MPO) [1]; [5])	Ki (Myeloperoxidase (MPO) [1]; Ki, Ki = k−3/k+3, DynaFit 3) [nM]	SMILES	k−3 (Myeloperoxidase (MPO) [1]; [6])	Akaike weight (Myeloperoxidase (MPO) [1]; 1 step model)	ΔAICc (Myeloperoxidase (MPO) [1]; 1 step model)	Akaike weight (Myeloperoxidase (MPO) [1]; 2 step model)	ΔAICc (Myeloperoxidase (MPO) [1]; 2 step model)	best fitting slow binding inhibition model (Myeloperoxidase (MPO) [1])	other results
0.0075 ± 4.93E-05 μM^−1s^−1	830	NNC(=O)c1ccc(F)cc1 [4-FBAH, 4-fluorobenzoic acid hydrazide]	0.0062 ± 0.0001 s⁻¹	0.9196	0	0.0804	4.9	–	–
0.10 ± 0.0014 µM⁻¹ s⁻¹	260	NNC(=O)c1ccccc1N [2-ABAH, 2-aminobenzoic acid hydrazide]	0.026 ± 0.0003 s⁻¹	0.01127	8.9	0.9887	0	two-step slow binding inhibitor; also recorded: two-step mechanism	k+4 (Myeloperoxidase (MPO) [1]; [7]): 0.0067 ± 0.0004 s⁻¹; k−4 (Myeloperoxidase (MPO) [1]; [7]): 0.0094 ± 0.002 s⁻¹; Ki (Myeloperoxidase (MPO) [1]; Ki* (overall inhibition constant, two-step model), two-step slow tight-binding model, Eq. 9): 160 nM; fold higher affinity inhibitor of Compound I as compared to isoniazid (Myeloperoxidase (MPO) [1]; from Ki* versus Ki of isoniazid): 62 fold
0.0011 ± 7.31E-06 μM^−1s^−1	10000	NNC(=O)c1ccncc1 [Isoniazid, isonicotinylhydrazine, reference compound]	0.011 ± 0.0001 s⁻¹	0.8857	0	0.1143	4.1	one-step slow binding inhibition model	–
–	–	OO [H2O2, hydrogen peroxide]	–	–	–	–	–	–	Ki (Myeloperoxidase (MPO) [3]; read-out: apparent inhibitory rate constant Ki (substrate inhibition)): 10.8 nM
–	3700	NNC(=O)c1ccc([N+](=O)[O-])cc1 [4-NBAH, 4-nitrobenzoic acid hydrazide]	–	–	–	–	–	–	–
–	560	CN(C)c1cccc(C(=O)NN)c1 [3-DMABAH, 3-(dimethylamino) benzoic acid hydrazide]	–	–	–	–	–	–	–
–	–	CC(=O)N1c2ccc(O)cc2Oc2cc(O)ccc21 [ADHP, 10-acetyl-3,7-dihydroxyphenoxazine, reference compound]	–	–	–	–	–	–	kon (Myeloperoxidase (MPO) [1]; read-out: apparent second order rate constant (K^appon)): 2100 ± 200 M⁻¹ s⁻¹
–	–	[N-]=[N+]=[N-].[Na+] [NaN3, sodium azide, reference compound]	0.156 ± 0.001 s⁻¹	0.8814	0	0.1186	4.0	one-step slow binding inhibition model	Ki (Myeloperoxidase (MPO) [1]; Ki = k−3/k+3, DynaFit 3): 840 nM; k+3 (Myeloperoxidase (MPO) [1]; pH 5.6): 0.185 ± 0.0018 µM⁻¹ s⁻¹; type of inhibition with ADHP (Myeloperoxidase (MPO) [3]; Lineweaver-Burk plots, 0, 7.5, 30 μM NaN3): competitive inhibition or mixed-type inhibition; apparent kcat of MPO for ADHP in presence of inhibitor (Myeloperoxidase (MPO) [3]; NaN3 7.5 μM): 161 s⁻¹; apparent kcat of MPO for ADHP in presence of inhibitor (Myeloperoxidase (MPO) [3]; NaN3 30 μM): 108 s⁻¹; fold reduction in apparent specificity constant (kcat/Km) (Myeloperoxidase (MPO) [3]; native system versus 30 μM NaN3): 11 fold; reversibility of inhibitor binding to MPO after equilibrium dialysis (Myeloperoxidase (MPO) [4]): reversible

SMILES	k+3 (Myeloperoxidase (MPO) [1]; [5])	Ki (Myeloperoxidase (MPO) [1]; Ki, Ki = k−3/k+3, DynaFit 3) [nM]	k−3 (Myeloperoxidase (MPO) [1]; [6])	Akaike weight (Myeloperoxidase (MPO) [1]; 1 step model)	ΔAICc (Myeloperoxidase (MPO) [1]; 1 step model)	Akaike weight (Myeloperoxidase (MPO) [1]; 2 step model)	ΔAICc (Myeloperoxidase (MPO) [1]; 2 step model)	best fitting slow binding inhibition model (Myeloperoxidase (MPO) [1])	other results
NNC(=O)c1ccccc1 [BAH, benzoic acid hydrazide]	0.0098 ± 5.47E-05 μM^−1s^−1	690	0.0068 ± 9.5E-05 s^−1	0.9969	0	0.00315	11.5	–	cleavage of MPO light chain-heme from heavy chain (Myeloperoxidase (MPO) [2]): light chain of MPO is cleaved from MPO
NNC(=O)c1ccc(C(F)(F)F)cc1 [4-TFMBAH, 4-(trifluoromethyl) benzoic acid hydrazide]	0.0013 ± 1.36E-05 μM^−1s^−1	3080	0.004 ± 0.0002 s⁻¹	0.909	0	0.09104	4.6	one-step slow binding inhibition model	–

Reference: article PMC4336777 (Archives of biochemistry and biophysics, 2014)
